Results reported in paper PMC12813973, “Consequences of Peptide Macrocyclization Revealed by Virus-Inspired β‑Hairpin Mimetics” (ACS Chemical Biology, 2025).
Where two headings read alike, the source gives them in different places. *1 amine or outer side, *2 acyl side, *3 side chain or, on linkers, in order; H or OH if unused. Where a SMILES comes first, the peptide text is derived from it. Bridges are numbered along the chain shown (N, C = ends). [ ]: non-standard residue; d: D form. oXylylene = c1ccc(C[*:2])c(C[*:1])c1; βAla = NCCC(=O)O

Legend:
[1] = molecular target: T1, STAT1 (Homo sapiens, UniProt P42224); test: Grating-coupled interferometry (GCI) waveRAPID kinetics, immobilised full-length STAT1; format: binding; details: for Kd: 20 mM HEPES pH 7.5, 300 mM NaCl, 0.01% Tween-20, 1:1 kinetic model, average of 2–4 technical replicates ± SD, SD; for kon at 0.5 µM: analyte 0.5 µM, read-out: ka
T1 construct: full-length STAT1 (Uniprot #P42224-1) was expressed in E. coli; His tag (pEXP-NHis vector) (N); made in house; host or cells: E. coli T7 Express
T1 sequence (P42224 1-750): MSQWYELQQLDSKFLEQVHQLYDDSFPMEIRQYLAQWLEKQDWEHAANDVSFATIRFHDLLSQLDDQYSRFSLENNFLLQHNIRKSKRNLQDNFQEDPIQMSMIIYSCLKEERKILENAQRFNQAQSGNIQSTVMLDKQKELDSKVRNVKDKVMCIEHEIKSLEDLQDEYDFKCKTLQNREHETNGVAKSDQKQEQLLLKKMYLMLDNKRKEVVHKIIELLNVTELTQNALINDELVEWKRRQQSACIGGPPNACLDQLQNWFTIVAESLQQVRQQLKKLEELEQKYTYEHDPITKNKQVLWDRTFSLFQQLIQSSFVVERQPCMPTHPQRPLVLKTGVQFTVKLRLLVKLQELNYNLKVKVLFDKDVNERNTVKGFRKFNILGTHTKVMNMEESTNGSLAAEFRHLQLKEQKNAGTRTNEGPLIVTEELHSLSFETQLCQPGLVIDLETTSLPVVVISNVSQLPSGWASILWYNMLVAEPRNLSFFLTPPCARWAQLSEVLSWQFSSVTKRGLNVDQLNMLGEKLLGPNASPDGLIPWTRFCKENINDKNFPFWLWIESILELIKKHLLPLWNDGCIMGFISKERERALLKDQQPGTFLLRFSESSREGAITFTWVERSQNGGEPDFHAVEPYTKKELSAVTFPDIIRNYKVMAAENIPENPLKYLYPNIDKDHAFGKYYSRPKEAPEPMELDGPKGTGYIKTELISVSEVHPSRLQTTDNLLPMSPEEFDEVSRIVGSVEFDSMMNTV
Source text: Understanding the molecular determinants of kinetic rate constants of binding (k a, k d) can aid the design of pharmacological probes with longer target engagement, which is beneficial for drug efficacy and decreased toxicity. , We characterized the binding kinetics of 018-derived macrocycles by using grating-coupled interferometry (GCI). We used waveRAPID, a regeneration-free kinetic binding assay that applies sequential analyte pulses of increasing duration onto a GCI biosensor surface with an immobilized target (Figures A, and S3,S4, Table S2).
(§1) Grating coupled interferometry (GCI)
(§2) GCI experiments were performed on a Creoptix WaveDELTA instrument (Malvern Panalytical). Full-length STAT1 or STAT3 were immobilised on a 4PCH chip (Malvern Panalytical #4PCH-03) to a density 2000-8000 pg/mm2 using EDC/NHS activation followed by amine coupling. Briefly, proteins (500 nM) were applied onto an activated chip in 10 mM MES pH 6.5, 20 mM NaCl, after which the chip surface was passivated with 1M ethanolamine, pH 8.0.
(§3) The kinetic measurements were perfor med using 20 mM HEPES pH 7.5, 300 mM NaCl, 0.01% Tween-20, 0.0005% DMSO as running buffer. Peptides were tested at 0.5 or 10 μM concentration using the waveRAPID kinetics experiment with the tight binder or intermediate binder mode, respectively.[4] Sensorgrams were fitted in the waveControl software (Malven Panalytical) using the 1:1 kinetic model. […]

[2] = molecular target: T1, STAT1; test: Isothermal titration calorimetry (ITC) of peptide binding to STAT1
Method: To determine affinities and thermodynamic profiles of binding, we performed isothermal titration calorimetry (ITC) experiments for peptides 1, 2, 3, 4, 7, and 8 (Figures A,B and S1,S2, Table S1). […] The experiments were repeated in two different buffer systems, TBST (50 mM Tris pH 8.0, 300 mM NaCl, 0.01% Tween-20) and PBST ([…], 150 mM NaCl, 0.01% Tween-20), to account for possible buffer protonation enthalpy artifacts. […]
Isothermal titration calorimetry (ITC)
ITC experiments were performed using a PEAQ ITC instrument (Malvern Panalytical) in either TBST (50 mM Tris pH 8.0, 300 mM NaCl, 0.5 mM TCEP, 0.01% Tween -20) or PBST (10 mM sodium phosphate pH 7.4, 150 mM NaCl, 0.01% Tween -20) as reaction buffers. STAT1 protein was buffer -exchanged into reaction buffer supplemented with 2% DMSO on a NAP -5 deslating column (Cytiv a #17085301) and its concentration was adjusted to 10 or 20 μM.
Peptides were diluted in reaction buffer from DMSO stocks to a matching 2% DMSO concentration. Peptide concentrations were adjusted to approximately 100-200 μM. ITC experiments were performed with STAT1 in the cell and peptides in the syringe at 25°C, with 750 RPM stirring, DP = 4 μcal/sec. 18 injections of 2 μl were performed over a 50 min titration.
Thermogram integra tion and isotherm fitting were performed using the PEAQ ITC analysis software (Malvern Panalytical ). Isotherms were fitted using a 1:1 binding model. Due to challenges in determining peptide concentrations with high accuracy , protein concentrations and stoichiometry (N=1.0) were kept constant during isotherm fitting, whereas peptide concentrations were allowed to vary. Fixing a single reactant concentration during fitting is acceptable given the sufficiently high C -values and isotherm curvature observed in the […]
Offset subtraction was implemented to remove injection heats.

[3] = molecular target: T1, STAT1; test: Fluorescence polarization competition assay with fluorescein-labelled pIFNGR1 docking site peptide probe; format: binding; details: 10 nM fluorescein pIFNGR1 probe, STAT1 1.5 μM, 20 mM Tris pH 8.0, 300 mM NaCl, 0.1% Tween-20, 0.5 mM TCEP, 2.5% DMSO, room temperature; four parameter logistic fit; read-out: IC50 (FP competition, pIFNGR1 probe displacement)
[4] = molecular target: T2, STAT3 (Homo sapiens, UniProt P40763); test: biochemical; format: binding
T2 construct: STAT3: the gene encoding full-length STAT3 was codon optimised for expression in; MBP (pEXP-MBP vector) (cleaved yes); His tag (IMAC capture, removed with the fusion by TEV and reverse IMAC) (cleaved yes); made in house; host or cells: E. coli T7 Express
T2 sequence (P40763 whole entry, species assumed, the tested form may be a part): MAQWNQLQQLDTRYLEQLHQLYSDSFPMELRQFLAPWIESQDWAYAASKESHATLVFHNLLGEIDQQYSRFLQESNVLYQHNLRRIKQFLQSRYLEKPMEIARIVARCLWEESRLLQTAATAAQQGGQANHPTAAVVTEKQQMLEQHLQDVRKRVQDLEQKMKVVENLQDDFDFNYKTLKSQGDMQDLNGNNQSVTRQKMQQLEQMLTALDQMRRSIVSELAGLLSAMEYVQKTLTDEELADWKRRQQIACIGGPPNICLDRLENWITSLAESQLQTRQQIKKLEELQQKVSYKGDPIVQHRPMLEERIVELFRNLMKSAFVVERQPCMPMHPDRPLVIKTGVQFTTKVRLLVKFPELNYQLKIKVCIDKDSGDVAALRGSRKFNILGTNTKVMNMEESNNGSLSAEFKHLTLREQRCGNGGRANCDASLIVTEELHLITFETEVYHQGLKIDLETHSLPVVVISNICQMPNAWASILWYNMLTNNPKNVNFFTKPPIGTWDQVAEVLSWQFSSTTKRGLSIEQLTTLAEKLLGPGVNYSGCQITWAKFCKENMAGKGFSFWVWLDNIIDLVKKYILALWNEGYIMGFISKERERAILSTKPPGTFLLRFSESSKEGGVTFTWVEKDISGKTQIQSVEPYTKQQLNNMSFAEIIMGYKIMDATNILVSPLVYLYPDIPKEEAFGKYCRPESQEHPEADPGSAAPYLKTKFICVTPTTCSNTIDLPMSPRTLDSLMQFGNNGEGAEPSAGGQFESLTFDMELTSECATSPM
Method: In such PPIs, the bulk of the binding energy contribution typically stems from backbone interactions, whereas binding specificity is fine-tuned by side-chain contacts. […] We evaluated the binding kinetics of peptides to full-length STAT3 using GCI.
as §1, §2, §3
GCI sensorgrams depicting RAPID kinetics measurements and fitted kinetic models for peptide binding to full-length STAT3 immobilised on a polycarboxylate hydrogel chip (4PCH). Peptides were applied at 0.5 or 10 μM concentration using the medium or tight binders pulse sequence. The peptides that show negligible Rmax values at 10 μM analyte concentration were classified as non-binding.
(1 picture or pasted object on this page, not shown here)

[5] = replicate 1 (first listed run, Table S2)
[6] = replicate 2 (second listed run, Table S2)
[7] = replicate 3 (third listed run, Table S2)
[8] = PBST pH 7.4 (NaPi, 150 mM NaCl, 0.01% Tween-20), average of 2–3 technical replicates, read-out: KD (ITC, summary Fig 2B)
[9] = TBST pH 8.0, average of 2–3 technical replicates, read-out: KD (ITC, summary Fig 2B)

Structure (SMILES): CC[C@H](C)[C@@H]1NC(=O)[C@@H](NC(=O)[C@@H](NC(=O)[C@H](CO)NC(=O)[C@H](Cc2c[nH]c3ccccc23)NC(=O)[C@H](CCSC)NC(C)=O)C(C)C)CSCc2ccccc2CSC[C@@H](C(=O)N[C@@H](CCCCN)C(=O)N[C@H](C(=O)N[C@@H](Cc2ccc(O)cc2)C(=O)N[C@H](C(N)=O)[C@@H](C)O)[C@@H](C)O)NC(=O)CNC(=O)[C@H](CCCCN)NC(=O)[C@H](CC(N)=O)NC(=O)[C@H](CO)NC(=O)CNC(=O)[C@H](CC(=O)O)NC(=O)[C@H](Cc2c[nH]cn2)NC(=O)CNC(=O)[C@H](Cc2c[nH]cn2)NC1=O [Peptide 9] (Ac-MWSVCIHGHDGSNKGCKTYT-NH2; linker 5-16 via oXylylene)
- Kd [1]: 1.5 ± 0.1 nM
- kon at 0.5 µM [1, 5]: 587000 M⁻¹ s⁻¹
- kon at 0.5 µM [1, 6]: 570000 M⁻¹ s⁻¹
- kon at 0.5 µM [1, 7]: 540000 M⁻¹ s⁻¹

Structure (SMILES): CSCC[C@@H]1NC(=O)CCNC(=O)CCNC(=O)[C@H]([C@@H](C)O)NC(=O)[C@H](Cc2ccc(O)cc2)NC(=O)[C@H]([C@@H](C)O)NC(=O)[C@H](CCCCN)NC(=O)[C@H](CO)NC(=O)[C@H](CS)NC(=O)[C@H](CCCCN)NC(=O)[C@H](CC(N)=O)NC(=O)[C@H](CO)NC(=O)CNC(=O)[C@H](CC(=O)O)NC(=O)[C@H](Cc2c[nH]cn2)NC(=O)CNC(=O)[C@H](Cc2c[nH]cn2)NC(=O)[C@H](CS)NC(=O)[C@H](Cc2ccccc2)NC(=O)[C@H](C(C)C)NC(=O)[C@H](CO)NC(=O)[C@H](Cc2c[nH]c3ccccc23)NC1=O [Peptide 7] (cyclo(CHGHDGSNKCSKTYT[βAla][βAla]MWSVF))
- Kd [1]: 96.9 ± 4 nM
- kon at 0.5 µM [1, 5]: 129000 M⁻¹ s⁻¹
- kon at 0.5 µM [1, 6]: 131000 M⁻¹ s⁻¹
- kon at 0.5 µM [1, 7]: 137000 M⁻¹ s⁻¹
- Kd [2, 8]: 114 nM
- Kd [2, 9]: 1930 nM

Structure (SMILES): CC[C@H](C)[C@@H]1NC(=O)[C@H](CS)NC(=O)[C@H](C(C)C)NC(=O)[C@H](CO)NC(=O)[C@H](Cc2c[nH]c3ccccc23)NC(=O)[C@H](CCSC)NC(=O)CCNC(=O)CCNC(=O)[C@H]([C@@H](C)O)NC(=O)[C@H](Cc2ccc(O)cc2)NC(=O)[C@H]([C@@H](C)O)NC(=O)[C@H](CCCCN)NC(=O)[C@H](CS)NC(=O)CNC(=O)[C@H](CCCCN)NC(=O)[C@H](CC(N)=O)NC(=O)[C@H](CO)NC(=O)CNC(=O)[C@H](CC(=O)O)NC(=O)[C@H](Cc2c[nH]cn2)NC(=O)CNC(=O)[C@H](Cc2c[nH]cn2)NC1=O [Peptide 3] (cyclo(CIHGHDGSNKGCKTYT[βAla][βAla]MWSV))
- Kd [1]: 7.5 ± 0.5 nM
- kon at 0.5 µM [1, 5]: 261000 M⁻¹ s⁻¹
- kon at 0.5 µM [1, 6]: 276000 M⁻¹ s⁻¹
- IC50 [3]: 1300 nM
- Kd [2, 8]: 55 nM
- Kd [2, 9]: 145 nM
- ka [4]: 83900 M⁻¹ s⁻¹
- Kd ([4]; full-length STAT3 on 4PCH chip, average of technical replicates ± SD (Fig 3E), SD, read-out: STAT3 KD (GCI waveRAPID)): 9300 ± 453 nM
- kon ([4]; read-out: ka): 81000 M⁻¹ s⁻¹

Structure (SMILES): CC[C@H](C)[C@@H]1NC(=O)[C@H](Cc2ccccc2)NC(=O)[C@H](C(C)C)NC(=O)[C@H](CO)NC(=O)[C@H](Cc2c[nH]c3ccccc23)NC(=O)[C@H](CCSC)NC(=O)CCNC(=O)CCNC(=O)[C@H]([C@@H](C)O)NC(=O)[C@H](Cc2ccc(O)cc2)NC(=O)[C@H]([C@@H](C)O)NC(=O)[C@H](CCCCN)NC(=O)[C@H](CO)NC(=O)CNC(=O)[C@H](CCCCN)NC(=O)[C@H](CC(N)=O)NC(=O)[C@H](CO)NC(=O)CNC(=O)[C@H](CC(=O)O)NC(=O)[C@H](Cc2c[nH]cn2)NC(=O)CNC(=O)[C@H](Cc2c[nH]cn2)NC1=O [Peptide 2]
- Kd [1]: 8.9 ± 1.9 nM
- kon at 0.5 µM [1, 5]: 216000 M⁻¹ s⁻¹
- kon at 0.5 µM [1, 6]: 213000 M⁻¹ s⁻¹
- kon at 0.5 µM [1, 7]: 321000 M⁻¹ s⁻¹
- Kd [2, 8]: 122 nM
- Kd ([2]; TBST (50 mM Tris pH 8.0, 300 mM NaCl, 0.01% Tween-20), 25°C, 1:1 model, average of three technical replicates ± SD (text and Fig 2A), SD, read-out: KD (ITC)): 330 ± 20 nM

Structure (SMILES): CSCC[C@@H]1NC(=O)CCNC(=O)CCNC(=O)[C@H]([C@@H](C)O)NC(=O)[C@H](Cc2ccc(O)cc2)NC(=O)[C@H]([C@@H](C)O)NC(=O)[C@H](CCCCN)NC(=O)[C@H](CO)NC(=O)[C@@H]2CSCc3ccccc3CSC[C@H](NC(=O)[C@H](Cc3ccccc3)NC(=O)[C@H](C(C)C)NC(=O)[C@H](CO)NC(=O)[C@H](Cc3c[nH]c4ccccc34)NC1=O)C(=O)N[C@@H](Cc1c[nH]cn1)C(=O)NCC(=O)N[C@@H](Cc1c[nH]cn1)C(=O)N[C@@H](CC(=O)O)C(=O)NCC(=O)N[C@@H](CO)C(=O)N[C@@H](CC(N)=O)C(=O)N[C@@H](CCCCN)C(=O)N2 [Peptide 8] (cyclo(CHGHDGSNKCSKTYT[βAla][βAla]MWSVF); linker 1-10 via oXylylene)
- Kd [1]: 75.4 ± 0.8 nM
- kon at 0.5 µM [1, 5]: 87000 M⁻¹ s⁻¹
- kon at 0.5 µM [1, 6]: 80000 M⁻¹ s⁻¹
- Kd [2, 8]: 247 nM
- Kd [2, 9]: 436 nM
